In one assay the target is human RORγt LBD (Homo sapiens (Human), UniProt P51449). The assay is described as follows: RORγt reporter assay (GAL4-RORγt LBD luciferase in HEK293T cells). In kind it is cell-based. Conditions: for IC50 / RORγt reporter Assay, % inhibition @ 6 μM: HEK293T cells; for IC50: 24 hours compound treatment; for inhibition at 6 µM: HEK-293T, read-out: RORγt reporter Assay, % inhibition @ 6 μM, HEK293T cells, 6 μM. In short, it runs like this:
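HEK293T cells transiently co-transfected with GAL4-DBD–wild-type human RORγt LBD (pBIND) and GAL4-responsive firefly luciferase reporter (pGL4.31); renilla luciferase from pBIND normalises transfection/viability. Cells in phenol-red-free DMEM, 5% lipid-reduced FCS, treated with compound 24 h. Firefly/renilla ratio plotted against compound concentration.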
On the technique in general: A reporter such as luciferase makes a cellular process visible.

The target of assay [1] is human RORγt ligand binding domain (RORγt LBD) (Homo sapiens (Human), UniProt P51449). Description: RORγt ThermoFluor assay (thermal shift binding affinity). Conditions: estimated from thermal shift. The method in brief:
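Thermal shift used 0.065 mg/mL RORγt LBD with 60 μM 1,8-ANS in 100 mM Hepes pH 7.0, 10 mM NaCl, 2.5 mM GSH and 0.002% Tween-20, heated at 1 °C/min. Fluorescence was excited at 380–400 nm and emission read at 500 nm.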

The subject of assay [2] is IL-17 production by CD4 T cells. The assay is described as follows: Human Th17 assay (IL-17 production by CD4 T cells under Th17 differentiation). Conditions: human CD4+ T cells, IL-17 after 3 days, read-out: Human Th17 Assay, IC50 μM. It counts as cell-based. In short, it runs like this:
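Healthy-donor peripheral CD4+ T cells (1.5×10^5/well) preincubated 1 h with titrated compound (0.2% DMSO), then differentiated with anti-CD3/CD28 beads, anti-IL4, anti-IFNγ, IL1β, IL23, IL6, TGFβ and IL2 for 3 days at 37 °C. Supernatant IL-17 quantified by MSD electrochemiluminescence against a standard curve; IC50 fitted.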

Where “and” joins values, the source holds several entries; their conditions need not be identical. Identical values can stand only once. Counter-ions that a name gives are not always drawn. Like-named read-outs stand apart in the source and are kept apart here.

Chain of human RORγt ligand binding domain (RORγt LBD) (P51449 other isoform, or with tags, fused parts or gaps): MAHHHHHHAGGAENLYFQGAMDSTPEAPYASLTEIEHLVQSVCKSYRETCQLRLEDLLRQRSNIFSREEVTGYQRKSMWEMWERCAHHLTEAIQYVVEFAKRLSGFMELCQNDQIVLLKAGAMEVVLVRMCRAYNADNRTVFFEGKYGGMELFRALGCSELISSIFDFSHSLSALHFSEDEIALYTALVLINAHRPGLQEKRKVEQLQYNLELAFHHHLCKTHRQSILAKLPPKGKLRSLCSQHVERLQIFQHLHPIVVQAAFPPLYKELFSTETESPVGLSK
Chain of human RORγt LBD (P51449 258-518): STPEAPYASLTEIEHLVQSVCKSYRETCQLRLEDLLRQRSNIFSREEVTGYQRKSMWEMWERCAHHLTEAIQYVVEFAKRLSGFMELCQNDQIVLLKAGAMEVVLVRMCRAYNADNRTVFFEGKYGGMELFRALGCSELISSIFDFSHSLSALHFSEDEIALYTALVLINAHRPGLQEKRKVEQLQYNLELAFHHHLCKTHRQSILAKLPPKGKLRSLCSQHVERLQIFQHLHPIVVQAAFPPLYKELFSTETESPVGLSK

The term IC50 denotes the point on the concentration scale where inhibition reaches its midpoint. A word on the inhibition: it is the drop in the measured response relative to a control, in per cent. A word on the Kd: it is the constant that tells how readily two partners part at equilibrium. Consider `COc1ccc(C(O)(c2ccc3nc(OC)c(Cc4ccc(-n5cccn5)cc4)c(Cl)c3c2)c2cncn2C)cn1` (stereo not drawn) [Example 22, (3-(4-(1H-Pyrazol-1-yl)benzyl)-4-chloro-2-methoxyquinolin-6-yl)(6-methoxypyridin-3-yl)(1-methyl-1H-imidazol-5-yl)methanol.TFA], for which the IC50 against human RORγt LBD was found to be 0.091 µM; in assay [2] (Homo sapiens, CD4+ T, 72 h) it was 0.016 µM. Moreover, the inhibition at 6 µM at human RORγt LBD was determined as 96%. In addition, the Kd in assay [1] was 2.8 nM.
For `Cn1cncc1C(O)(c1ccc(C(F)(F)F)nc1)c1ccc2nc(N3CCC3)c(Cc3ccc(-n4cccn4)cc3)c(Cl)c2c1` (single isomer, unassigned) [Example 68B, (3-(4-(1H-pyrazol-1-yl)benzyl)-2-(azetidin-1-yl)-4-chloroquinolin-6-yl)(1-methyl-1H-imidazol-5-yl)(6-(trifluoromethyl)pyridin-3-yl)methanol], at human RORγt LBD, the IC50 was about 0.05 µM and the inhibition at 6 µM came out at 96%. Moreover, the equilibrium dissociation constant (Kd) in assay [1] is 2.1 nM. Also, the IC50 in assay [2] was determined as 0.01 µM.
For `COc1nc2ccc(C(O)(c3ccc(Cl)cc3)c3cncn3C)cc2c(Cl)c1Cc1cc2ccccc2s1` (single isomer, unassigned) [Example 36C, (3-(benzo[b]thiophen-2-ylmethyl)-4-chloro-2-methoxyquinolin-6-yl)(4-chlorophenyl)(1-methyl-1H-imidazol-5-yl)methanol], on human RORγt LBD, the “RORγt reporter Assay, % inhibition @ 6 μM” value is reported as 101% and the IC50 was 0.1 µM. The Kd in assay [1] was 11 nM. In addition, the IC50 in assay [2] (Homo sapiens, CD4+ T, 72 h) was 0.066 µM.
In the case of `OC(c1cccnc1)(c1cccc(Cl)c1)c1ccc2nc(Cl)c(Cc3cccs3)c(Cl)c2c1` (stereo not drawn) [Example 32, (3-Chlorophenyl)(2,4-dichloro-3-(thiophen-2-ylmethyl)quinolin-6-yl)(pyridin-3-yl)methanol.TFA], the IC50 came to 0.11 µM against human RORγt LBD and 1.8 µM in assay [2] (Homo sapiens, CD4+ T, 72 h). Also, the inhibition at 6 µM on human RORγt LBD was 103%. In assay [1], the Kd is 33 nM.
As for `Cn1cncc1C(O)(c1ccc(C(F)(F)F)nc1)c1ccc2nc(Cl)c(Cc3ccc(-n4cccn4)cc3)c(Cl)c2c1` (stereo not drawn) [Example 23, (3-(4-(1H-Pyrazol-1-yl)benzyl)-2,4-dichloroquinolin-6-yl)(1-methyl-1H-imidazol-5-yl)(6-(trifluoromethyl)pyridin-3-yl)methanol.TFA], the IC50 came to 0.014 µM against human RORγt LBD and 0.15 µM in assay [2] (Homo sapiens, CD4+ T, 72 h). Besides, the inhibition at 6 µM at human RORγt LBD worked out at 95%. Besides, in assay [1], the Kd was 4 nM.
For `Cn1cncc1C(O)(c1ccc2nc(Cl)c(Cc3ccc(-n4cccn4)cc3)c(Cl)c2c1)c1cncn1C` [Example 30, (3-(4-(1H-Pyrazol-1-yl)benzyl)-2,4-dichloroquinolin-6-yl)bis(1-methyl-1H-imidazol-5-yl)methanol.TFA] the same measures were 0.025 µM, 0.063 µM, 98% and 2.2 nM.
For `COc1nc2ccc(C(O)(c3ccc(C(F)(F)F)nc3)c3cncn3C)cc2c(Cl)c1Cc1cc2ccccc2s1` (stereo not drawn) [Example 37A, (3-(Benzo[b]thiophen-2-ylmethyl)-4-chloro-2-methoxyquinolin-6-yl)(1-methyl-1H-imidazol-5-yl)(6-(trifluoromethyl)pyridin-3-yl)methanol.TFA] the same measures were 0.028 µM, 0.12 µM, 100% and 7.8 nM.
Take `COc1nc2ccc(C(O)(c3sc(C)nc3C)c3cnnn3C)cc2c(Cl)c1Cc1ccc(C(F)(F)F)cc1` (stereo not drawn) [Example 79C, (4-Chloro-2-methoxy-3-(4-(trifluoromethyl)benzyl)quinolin-6-yl)(2,4-dimethylthiazol-5-yl)(1-methyl-1H-1,2,3-triazol-5-yl)methanol]: the IC50 came out at 0.0025 µM on human RORγt LBD and 0.0015 µM in assay [2] (Homo sapiens, CD4+ T, 72 h). In addition, the inhibition at 6 µM on human RORγt LBD is 94%. Also, the Kd in assay [1] is 0.024 nM.
The matching figures for `COc1nc2ccc(C(O)(c3ccc(Cl)cc3)c3cncn3C)cc2c(Cl)c1Cc1cc2ccccc2s1` (stereo not drawn) [Example 36A, (3-(Benzo[b]thiophen-2-ylmethyl)-4-chloro-2-methoxyquinolin-6-yl)(4-chlorophenyl)(1-methyl-1H-imidazol-5-yl)methanol]: 0.18 µM, 0.1 µM, 98% and 40 nM.
For `COc1nc2ccc(C(N)(c3ccc(C)nc3C)c3cnnn3C)cc2c(Cl)c1Cc1ccc(C(F)(F)F)cc1` (single isomer, unassigned) [Example 87C, (4-Chloro-2-methoxy-3-(4-(trifluoromethyl)benzyl)quinolin-6-yl)(2,6-dimethylpyridin-3-yl)(1-methyl-1H-1,2,3-triazol-5-yl)methanamine], the “RORγt reporter Assay, % inhibition @ 6 μM” value at human RORγt LBD was 99%. For the same molecule, the IC50 stood at 0.012 µM at human RORγt LBD and 0.0045 µM in assay [2] (Homo sapiens, CD4+ T, 72 h). Further, the Kd in assay [1] was 1.3 nM.
`COc1nc2ccc(C(O)(c3ccccc3)C3CCN(C(C)=O)CC3)cc2c(Cl)c1Cc1ccc(-n2cccn2)cc1` (single isomer, unassigned) [Example 83B, 1-(4-((3-(4-(1H-Pyrazol-1-yl)benzyl)-4-chloro-2-methoxyquinolin-6-yl)(hydroxy)(phenyl)methyl)piperidin-1-yl)ethanone]: on human RORγt LBD, the IC50 is 0.024 µM and ~0.07 µM; the inhibition at 6 µM was 100%. The Kd in assay [1] is 4.7 nM. For the same molecule, the IC50 in assay [2] is 0.016 µM.
Consider `COc1nc2ccc(C(O)(c3ccc(C(F)(F)F)nc3)c3cncn3C)cc2c(Cl)c1Cc1cc2ccccc2s1` (single isomer, unassigned) [Example 37B, (3-(benzo[b]thiophen-2-ylmethyl)-4-chloro-2-methoxyquinolin-6-yl)(1-methyl-1H-imidazol-5-yl)(6-(trifluoromethyl)pyridin-3-yl)methanol], for which, at human RORγt LBD, the IC50 amounted to 0.16 µM and the inhibition at 6 µM came to 99%. In addition, in assay [1], the Kd is 44 nM. Also, the IC50 in assay [2] (Homo sapiens, CD4+ T, 72 h) came out at 0.11 µM.
On to `Cc1cc(C(O)(c2ccc(C(F)(F)F)nc2)c2cncn2C)cc2c(C#N)c(Cc3ccc(-n4cccn4)cc3)c(C#N)nc12` (single isomer, unassigned) [Example 65B, 3-(4-(1H-pyrazol-1-yl)benzyl)-6-(hydroxy(1-methyl-1H-imidazol-5-yl)(6-(trifluoromethyl)pyridin-3-yl)methyl)-8-methylquinoline-2,4-dicarbonitrile], for which the IC50 at human RORγt LBD amounted to 0.13 µM; in assay [2], 0.22 µM. Further, on human RORγt LBD, the inhibition at 6 µM is 101%. In assay [1], the equilibrium dissociation constant (Kd) was 140 nM.
On to `COc1nc2ccc(C(O)(c3cnnn3C)c3cnc(C)n3C)cc2c(C#N)c1Cc1ccc(C(F)(F)F)cc1` (single isomer, unassigned) [Example 81B, 6-((1,2-Dimethyl-1H-imidazol-5-yl)(hydroxy)(1-methyl-1H-1,2,3-triazol-5-yl)methyl)-2-methoxy-3-(4-(trifluoromethyl)benzyl)quinoline-4-carbonitrile], for which, on human RORγt LBD, the IC50 is 0.002 µM and ~0.0002 µM; the inhibition at 6 µM was 104%. Besides, the Kd in assay [1] was 0.05 nM. Also, the 50% inhibitory concentration (IC50) in assay [2] (Homo sapiens, CD4+ T, 72 h) was found to be 0.0022 µM.
Regarding `COc1nc2ccc(C(O)(c3ccc(C(F)(F)F)nc3)c3cncn3C)cc2c(Cl)c1Cc1cc2ccccc2s1` (single isomer, unassigned) [Example 37C, (3-(benzo[b]thiophen-2-ylmethyl)-4-chloro-2-methoxyquinolin-6-yl)(1-methyl-1H-imidazol-5-yl)(6-(trifluoromethyl)pyridin-3-yl)methanol], the “RORγt reporter Assay, % inhibition @ 6 μM” value on human RORγt LBD stood at 102%. The IC50 on human RORγt LBD was found to be 0.11 µM; in assay [2], 0.15 µM. The Kd in assay [1] is 3.5 nM.
In the case of `COc1nc2c(C)cc(C(O)(c3ccc(C(F)(F)F)nc3)c3cncn3C)cc2c(Cl)c1Cc1ccc(-n2cccn2)cc1` (single isomer, unassigned) [Example 29B, (3-(4-(1H-pyrazol-1-yl)benzyl)-4-chloro-2-methoxy-8-methylquinolin-6-yl)(1-methyl-1H-imidazol-5-yl)(6-(trifluoromethyl)pyridin-3-yl)methanol], on human RORγt LBD, the IC50 was 0.13 µM and the inhibition at 6 µM turned out to be 102%. For the same molecule, the Kd in assay [1] is 93 nM. Also, the IC50 in assay [2] stood at 0.19 µM.
`Cn1cncc1C(O)(c1ccc(Cl)cc1)c1ccc2nc(C#N)c(Cc3ccc(-n4cccn4)cc3)c(C#N)c2c1` (single isomer, unassigned) [Example 71C, 3-(4-(1H-Pyrazol-1-yl)benzyl)-6-((4-chlorophenyl)(hydroxy)(1-methyl-1H-imidazol-5-yl)methyl)quinoline-2,4-dicarbonitrile]: at human RORγt LBD, the “RORγt reporter Assay, % inhibition @ 6 μM” value is listed as 103% and the IC50 amounted to 0.26 µM. For the same molecule, the Kd in assay [1] is 130 nM. Besides, the IC50 in assay [2] stood at 0.3 µM.
Turning to `CCN(C)c1nc2ccc(C(O)(c3ccc(Cl)cc3)c3cncn3C)cc2c(Cl)c1Cc1ccc(-n2cccn2)cc1` (stereo not drawn) [Example 17, (3-(4-(1H-Pyrazol-1-yl)benzyl)-4-chloro-2-(ethyl(methyl)amino)quinolin-6-yl)(4-chlorophenyl)(1-methyl-1H-imidazol-5-yl)methanol.TFA], at human RORγt LBD, the IC50 is 0.38 µM and the inhibition at 6 µM is 96%. Also, the dissociation constant (Kd) in assay [1] was 310 nM. Further, the IC50 in assay [2] (Homo sapiens, CD4+ T, 72 h) amounted to 1.2 µM.
